Data from ChEMBL document CHEMBL3621111, “In vitro COX-1 and COX-2 enzyme inhibitory activities of iridoids from Penstemon barbatus, Castilleja tenuiflora, Cresentia alata and Vitex mollis” (Bioorg Med Chem Lett, 2015).

Assays:
[1] = target: Prostaglandin G/H synthase 1 (Homo sapiens) (UniProt P23219); assay: Inhibition of COX1 (unknown origin) assessed as PGH2 production at 10 uM by measuring […] level by enzyme immunoassay
[2] = target: Prostaglandin G/H synthase 1 (Homo sapiens) (UniProt P23219); assay: Inhibition of COX1 (unknown origin) assessed as PGH2 production at 35 uM by measuring […] level by enzyme immunoassay
[3] = target: Prostaglandin G/H synthase 1 (Homo sapiens) (UniProt P23219); assay: Inhibition of COX1 (unknown origin) assessed as PGH2 production at 100 uM by measuring […] level by enzyme immunoassay

Chain of Prostaglandin G/H synthase 1 (Homo sapiens) (P23219 whole entry): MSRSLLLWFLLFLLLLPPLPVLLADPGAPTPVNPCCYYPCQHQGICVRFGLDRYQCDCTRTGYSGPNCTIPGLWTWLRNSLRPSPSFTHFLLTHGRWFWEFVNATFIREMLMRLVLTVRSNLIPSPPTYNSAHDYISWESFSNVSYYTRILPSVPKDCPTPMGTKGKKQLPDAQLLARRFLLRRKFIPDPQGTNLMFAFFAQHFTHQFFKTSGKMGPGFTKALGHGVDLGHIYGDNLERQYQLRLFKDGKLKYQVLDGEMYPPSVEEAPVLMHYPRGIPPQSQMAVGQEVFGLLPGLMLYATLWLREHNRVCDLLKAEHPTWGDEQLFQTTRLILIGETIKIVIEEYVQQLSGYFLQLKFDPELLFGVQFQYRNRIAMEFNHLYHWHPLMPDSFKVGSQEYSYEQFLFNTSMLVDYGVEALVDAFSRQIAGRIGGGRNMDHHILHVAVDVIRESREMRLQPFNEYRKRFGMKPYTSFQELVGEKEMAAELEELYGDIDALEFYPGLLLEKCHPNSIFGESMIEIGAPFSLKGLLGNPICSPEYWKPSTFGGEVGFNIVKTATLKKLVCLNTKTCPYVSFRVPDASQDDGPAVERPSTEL

SMILES	inhibition [1]	inhibition [2]	inhibition [3]
COc1ccc(C(=O)O[C@H]2[C@@H]3C=CO[C@@H](O[C@@H]4O[C@H](CO)[C@@H](O)[C@H](O)[C@H]4O)[C@@H]3[C@@]3(CO)O[C@@H]23)cc1OC	38.2%	38.6%	39.1%
OC[C@H]1O[C@@H](O[C@@H]2OC=C[C@H]3[C@H](O)[C@@H]4O[C@]4(CO)[C@@H]23)[C@H](O)[C@@H](O)[C@@H]1O	44.2%	47.6%	63.7%
COC(=O)C1=CO[C@@H](O[C@@H]2O[C@H](CO)[C@@H](O)[C@H](O)[C@H]2O)[C@@H]2[C@H](C)[C@@H](O)C[C@H]12	33.4%	< 30%	< 30%
COC(=O)C1=CO[C@@H](O[C@@H]2O[C@H](CO)[C@@H](O)[C@H](O)[C@H]2O)[C@H]2[C@@H]1CC[C@]2(C)O	< 30%	42.6%	42.7%
C[C@@H]1[C@H]2[C@H](O[C@@H]3O[C@H](CO)[C@@H](O)[C@H](O)[C@H]3O)OC=C(C(=O)O)[C@H]2C[C@@H]1O	36.9%	36%	35.4%
O=C(O)C1=CO[C@@H](O[C@@H]2O[C@H](CO)[C@@H](O)[C@H](O)[C@H]2O)[C@@H]2C(CO)=CC[C@H]12	55.7%	54.1%	55.3%
OCC1=C[C@@H](O)[C@@H]2C=CO[C@@H](O[C@@H]3O[C@H](CO)[C@@H](O)[C@H](O)[C@H]3O)[C@H]12	49.9%	48.2%	50.2%
COC(=O)C1=CO[C@@H](O[C@@H]2O[C@H](CO)[C@@H](O)[C@H](O)[C@H]2O)[C@@H]2[C@@H](C)[C@@H](O)C[C@H]12	51.2%	51.5%	50.5%
C[C@@H]1CC[C@@H]2C(C=O)=CO[C@@H](O[C@@H]3O[C@H](CO)[C@@H](O)[C@H](O)[C@H]3O)[C@H]12	43%	48%	73.3%
O=C(OCC1=C[C@@H](O)[C@@H]2C=CO[C@@H](O[C@@H]3O[C@H](CO)[C@@H](O)[C@H](O)[C@H]3O)[C@H]12)c1ccc(O)cc1	40.3%	40.8%	43.4%
C=C1[C@H]2[C@H](O[C@@H]3O[C@H](CO)[C@@H](O)[C@H](O)[C@H]3O)OC=C(C(=O)O)[C@H]2C[C@@H]1O	51.7%	51.4%	48.2%
OCC1=CC[C@@H]2C=CO[C@@H](O[C@@H]3O[C@H](CO)[C@@H](O)[C@H](O)[C@H]3O)[C@H]12	52.7%	49.9%	47.5%
CC(=O)O[C@]1(C)C[C@@H](O)[C@]2(O)C=CO[C@@H](O[C@@H]3O[C@H](CO)[C@@H](O)[C@H](O)[C@H]3O)[C@@H]21	38.5%	38.6%	39.1%
C[C@@H]1CC[C@]2(O)C(C=O)=CO[C@@H](O[C@@H]3O[C@H](CO)[C@@H](O)[C@H](O)[C@H]3O)[C@H]12	36.3%	36.6%	39.9%
COC(=O)C1=CO[C@@H](O[C@@H]2O[C@H](CO)[C@@H](O)[C@H](O)[C@H]2O)[C@@H]2[C@H](C)C[C@@H](O)[C@]12O	33.2%	33.4%	51.7%
COc1ccc(C(=O)O[C@@H]2C=C(CO)[C@H]3[C@H](O[C@@H]4O[C@H](CO)[C@@H](O)[C@H](O)[C@H]4O)OC=C[C@H]32)cc1	35%	34.3%	32.8%
